Assay results reported in PubChem BioAssay (NCI).
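Following 48 hours of exposure in 96-well plates, responses at five concentrations were used to interpolate endpoints linearly. GI50 marks 50% less growth. TGI marks complete inhibition of growth.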

What was measured:
Assay in all cases: growth of human tumour cells (NCI), 48 h
[1] = test system: HS 578T breast
[2] = test system: SNB-75 CNS
[3] = test system: DU-145 prostate
[4] = test system: NCI-H460 lung
[5] = test system: RXF 393 renal
[6] = test system: HL-60(TB) leukemia
[7] = test system: SK-MEL-2 melanoma
[8] = test system: OVCAR-5 ovarian
[9] = test system: COLO 205 colon
[10] = test system: SK-OV-3 ovarian
[11] = test system: HCC-2998 colon
[12] = test system: A549 NSCLC
[13] = test system: SNB-19 CNS
[14] = test system: A498 renal
[15] = test system: SK-MEL-28 melanoma
[16] = test system: HCT-15 colon
[17] = test system: KM12 colon
[18] = test system: HOP-62 NSCLC
[19] = test system: NCI-H23 lung
[20] = test system: NCI-H522 lung
[21] = test system: OVCAR-8 ovarian
[22] = test system: UACC-62 melanoma
[23] = test system: MDA-MB-231 breast
[24] = test system: TK-10 renal
[25] = test system: NCI-H226 lung
[26] = test system: MCF7 breast
[27] = test system: MOLT-4 leukemia
[28] = test system: SF-539 CNS
[29] = test system: SK-MEL-5 melanoma
[30] = test system: HT29 colon
[31] = test system: NCI/ADR-RES ovarian
[32] = test system: 786-0 renal
[33] = test system: BT-549 breast
[34] = test system: EKVX NSCLC
[35] = test system: T-47D breast
[36] = test system: HOP-92 NSCLC
[37] = test system: HCT-116 colon
[38] = test system: RPMI-8226 leukemia
[39] = test system: SN12C renal
[40] = test system: IGROV1 ovarian
[41] = test system: OVCAR-4 ovarian
[42] = test system: U251 CNS
[43] = test system: ACHN renal
[44] = test system: LOX IMVI melanoma
[45] = test system: SW-620 colon
[46] = test system: CCRF-CEM leukemia
[47] = test system: K-562 leukemia
[48] = test system: CAKI-1 renal
[49] = test system: MDA-MB-435
[50] = test system: UO-31 renal
[51] = test system: PC-3 prostate
[52] = test system: SF-268 CNS
[53] = test system: M14 melanoma
[54] = test system: UACC-257 melanoma
[55] = test system: OVCAR-3 ovarian
[56] = test system: SF-295 CNS
[57] = test system: MALME-3M melanoma

## C[C@@H]1CCC[C@]2(C)O[C@H]2CC[C@@](C)(O)[C@@H]2CC3=C(CO)C(=O)O[C@H]3[C@H]1O2
[1]
  TGI: > 50 µM
[2]
  TGI: > 50 µM
[3]
  TGI: > 50 µM
[4]
  TGI: > 50 µM
[5]
  TGI: > 50 µM
[6]
  TGI: > 5 µM
[7]
  TGI: > 50 µM
[8]
  TGI: > 50 µM
[9]
  TGI: > 50 µM
[10]
  TGI: > 50 µM
[11]
  TGI: > 50 µM
[12]
  TGI: > 50 µM
[13]
  TGI: > 50 µM
[14]
  TGI: > 50 µM
[15]
  TGI: > 50 µM
[16]
  TGI: > 50 µM
[17]
  TGI: > 50 µM
[18]
  TGI: > 50 µM
[19]
  TGI: > 50 µM
[20]
  TGI: > 50 µM
[21]
  TGI: > 50 µM
[22]
  TGI: > 50 µM
[23]
  TGI: > 50 µM
[24]
  TGI: > 50 µM
[25]
  TGI: > 50 µM
[26]
  TGI: > 50 µM
[27]
  TGI: > 50 µM
[28]
  TGI: > 50 µM
[29]
  TGI: > 50 µM
[30]
  TGI: > 50 µM
[31]
  TGI: > 50 µM
[32]
  TGI: > 50 µM
[33]
  TGI: > 50 µM
[34]
  TGI: > 50 µM
[35]
  TGI: > 50 µM
[36]
  TGI: > 50 µM
[37]
  TGI: > 50 µM
[38]
  TGI: > 50 µM
[39]
  TGI: > 50 µM
[40]
  TGI: > 50 µM
[41]
  TGI: > 50 µM
[42]
  TGI: > 50 µM
[43]
  TGI: > 50 µM
[44]
  TGI: > 50 µM
[45]
  TGI: > 50 µM
[46]
  TGI: > 50 µM
[47]
  TGI: > 50 µM
[48]
  TGI: > 50 µM
[49]
  TGI: > 50 µM
[50]
  TGI: > 50 µM
[51]
  TGI: > 50 µM
[52]
  TGI: > 50 µM
[53]
  TGI: > 50 µM
[54]
  TGI: > 50 µM
[55]
  TGI: > 50 µM
[56]
  TGI: > 50 µM

## CCOC(=O)c1cc2c(c3ccsc13)C1(C)CCC3c4ccc(OC)cc4CCC3C1C2 (centres undefined)
[1]
  GI50: > 100 µM
  TGI: > 100 µM
[3]
  GI50: > 100 µM
  TGI: > 100 µM
[4]
  GI50: > 100 µM
  TGI: > 100 µM
[5]
  GI50: > 100 µM
  TGI: > 100 µM
[6]
  GI50: > 100 µM
  TGI: > 100 µM
[7]
  GI50: > 100 µM
  TGI: > 100 µM
[8]
  GI50: > 100 µM
  TGI: > 100 µM
[57]
  GI50: > 100 µM
  TGI: > 100 µM
[9]
  GI50: > 100 µM
  TGI: > 100 µM
[10]
  GI50: 36 µM
  TGI: > 100 µM
[11]
  GI50: > 100 µM
  TGI: > 100 µM
[12]
  GI50: > 100 µM
  TGI: > 100 µM
[13]
  GI50: > 100 µM
  TGI: > 100 µM
[14]
  GI50: > 100 µM
  TGI: > 100 µM
[15]
  GI50: > 100 µM
  TGI: > 100 µM
[16]
  GI50: > 100 µM
  TGI: > 100 µM
[17]
  GI50: > 100 µM
  TGI: > 100 µM
[18]
  GI50: > 100 µM
  TGI: > 100 µM
[19]
  GI50: > 100 µM
  TGI: > 100 µM
[20]
  GI50: > 100 µM
  TGI: > 100 µM
[21]
  GI50: > 100 µM
  TGI: > 100 µM
[22]
  GI50: > 100 µM
  TGI: > 100 µM
[23]
  GI50: > 100 µM
  TGI: > 100 µM
[24]
  GI50: > 100 µM
  TGI: > 100 µM
[25]
  GI50: > 100 µM
  TGI: > 100 µM
[26]
  GI50: > 100 µM
  TGI: > 100 µM
[28]
  GI50: > 100 µM
  TGI: > 100 µM
[29]
  GI50: > 100 µM
  TGI: > 100 µM
[30]
  GI50: 60.3 µM
  TGI: > 100 µM
[31]
  GI50: > 100 µM
  TGI: > 100 µM
[32]
  GI50: > 100 µM
  TGI: > 100 µM
[33]
  GI50: > 100 µM
  TGI: > 100 µM
[34]
  GI50: > 100 µM
  TGI: > 100 µM
[35]
  GI50: > 100 µM
  TGI: > 100 µM
[36]
  GI50: > 100 µM
  TGI: > 100 µM
[37]
  GI50: > 100 µM
  TGI: > 100 µM
[38]
  GI50: > 100 µM
  TGI: > 100 µM
[39]
  GI50: > 100 µM
  TGI: > 100 µM
[40]
  GI50: > 100 µM
  TGI: > 100 µM
[42]
  GI50: > 100 µM
  TGI: > 100 µM
[43]
  GI50: > 100 µM
  TGI: > 100 µM
[44]
  GI50: > 100 µM
  TGI: > 100 µM
[45]
  GI50: > 100 µM
  TGI: > 100 µM
[46]
  GI50: > 100 µM
  TGI: > 100 µM
[47]
  GI50: > 100 µM
  TGI: > 100 µM
[48]
  GI50: > 100 µM
  TGI: > 100 µM
[49]
  GI50: > 100 µM
  TGI: > 100 µM
[50]
  GI50: > 100 µM
  TGI: > 100 µM
[51]
  GI50: > 100 µM
  TGI: > 100 µM
[52]
  GI50: > 100 µM
  TGI: > 100 µM
[53]
  GI50: > 100 µM
  TGI: > 100 µM
[54]
  GI50: > 100 µM
  TGI: > 100 µM
[55]
  GI50: > 100 µM
  TGI: > 100 µM
[56]
  GI50: > 100 µM
  TGI: > 100 µM
